pIC50: −log10 of the molar value.
Target: T1, RORγ (Homo sapiens, UniProt P51449)
T1 construct: Jurkat pEx/Gal/hRORγ CLBD/HYG pG5luc/blast; expressed in transfected cells
T1 sequence (P51449 269-508 limits assumed): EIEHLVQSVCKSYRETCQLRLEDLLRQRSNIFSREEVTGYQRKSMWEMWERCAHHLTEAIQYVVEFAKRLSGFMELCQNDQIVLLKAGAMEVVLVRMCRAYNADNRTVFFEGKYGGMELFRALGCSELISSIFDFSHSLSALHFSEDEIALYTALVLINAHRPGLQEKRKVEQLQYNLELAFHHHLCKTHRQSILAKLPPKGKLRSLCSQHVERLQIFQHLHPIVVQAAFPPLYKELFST
Test: RORγ Gal4 reporter assay (Gal4-luciferase reporter in Jurkat cells)
Assay type: cell-based
Conditions: inhibition of luminescence (inverse agonist activity); Jurkat cells stably over-expressing hRORγ; incubated overnight
Method: General RORγ Gal4 Reporter Assay
Inverse agonist activity of potential ligands to RORγ was measured by inhibition of luminescence in a Gal4-luciferase reporter assay in Jurkat cells.
Jurkat cells stably over-expressing the RORγ receptor, Jurkat pEx/Gal/hRORγ CLBD/HYG pG5luc/blast, were plated at a concentration of 10,000 cells/well in a 384-well solid white cell culture plate (Perkin Elmer #6007899) in assay buffer RPMI 1640 (Gibco 11875-085 1L) containing 0.1% BSA, 100×HEPES (Gibco 15360-080), 100 mM sodium pyruvate (Gibco 11360-040), […] Hygromycin B (Invitrogen 10687-010) and 10 mg/mL blasticidin (Invitrogen R210-01). 100 nL of test compound in a 3-fold serial dilution, with final concentrations ranging from 40 μM to 0.67 nM, were added to the cells which were then incubated overnight.
The following day, cells were lysed with 10 μL of Steady-Glo Luciferase Assay System (Promega Cat. No. EZ550), and analyzed immediately. IC50 values were determined. The IC50 value is defined as the concentration of test compound needed to reduce luciferase activity by 50% and is calculated using the four parameter logistic equation to fit the normalized data.

Row | pIC50 | SMILES
1 | 7.55 | N=S1(=O)CCC(C(=O)N2CC[C@@]3(S(=O)(=O)c4ccc(F)cc4)c4ccc(C(F)(C(F)(F)F)C(F)(F)F)cc4CC[C@@H]23)CC1 (mixture of isomers) [Example 7, ((3aR,9bR)-9b-((4-fluorophenyl)sulfonyl)-7-(perfluoropropan-2-yl)-1,2,3a,4,5,9b-hexahydro-3H-benzo[e]indol-3-yl)(1-imino-1-oxidohexahydro-1λ^6-thiopyran-4-yl)methanone]
2 | 7.85 | N=S1(=O)CCC(O)(C(=O)N2CC[C@@]3(S(=O)(=O)c4ccc(F)cc4)c4ccc(C(F)(C(F)(F)F)C(F)(F)F)cc4CC[C@@H]23)CC1 (mixture of isomers) [Example 9, ((3aR)-9b-((4-fluorophenyl)sulfonyl)-7-(perfluoropropan-2-yl)-4,5-dihydro-1H-benzo[e]indol-3(2H,3aH,9bH)-yl)(4-hydroxy-1-imino-1-oxidotetrahydro-2H-thiopyran-4-yl)methanone]
3 | 7.40 | N=S1(=O)CCC(C(=O)N2CCC3(S(=O)(=O)c4cccc(F)c4)c4ccc(C(F)(C(F)(F)F)C(F)(F)F)cc4CCC23)CC1 (single isomer, unassigned) [Example 1, (9b-((3-fluorophenyl)sulfonyl)-7-(perfluoropropan-2-yl)-1,2,3a,4,5,9b-hexahydro-3H-benzo[e]indol-3-yl)(1-imino-1-oxidohexahydro-1λ^6-thiopyran-4-yl)methanone]
4 | 7.24 | N=S1(=O)CCC(C(=O)N2CCC3(S(=O)(=O)c4cccc(Cl)c4)c4ccc(C(F)(C(F)(F)F)C(F)(F)F)cc4CCC23)CC1 (single isomer, unassigned) [Example 2]
5 | 7.25 | N=S1(=O)CCC(C(=O)N2CCC3(S(=O)(=O)c4ccccc4)c4ccc(C(F)(C(F)(F)F)C(F)(F)F)cc4CCC23)CC1 (single isomer, unassigned) [Example 3]
6 | 6.61 | N=S1(=O)CCC(C(=O)N2CCC3(S(=O)(=O)c4ccc(F)cc4)c4ccc(C(F)(C(F)(F)F)C(F)(F)F)cc4OCC23)CC1 (single isomer, unassigned) [Example 4]
7 | 7.24 | N=S1(=O)CCC(C(=O)N2CCC3(S(=O)(=O)c4ccc(Cl)cc4)c4ccc(C(F)(C(F)(F)F)C(F)(F)F)cc4CCC23)CC1 (single isomer, unassigned) [Example 5]
8 | 7.29 | N=S1(=O)CCC(C(=O)N2CCC3(S(=O)(=O)c4ccc(F)cc4)c4ccc(C(F)(C(F)(F)F)C(F)(F)F)cc4NCC23)CC1 (single isomer, unassigned) [Example 6, (9b-((4-fluorophenyl)sulfonyl)-7-(perfluoropropan-2-yl)-1,2,3a,4,5,9b-hexahydro-3H-pyrrolo[2,3-c]quinolin-3-yl)(1-imino-1-oxidohexahydro-1λ^6-thiopyran-4-yl)methanone]
9 | 7.41 | N=S1(=O)CCC(C(=O)N2CC[C@@]3(S(=O)(=O)c4ccc(F)cc4)c4ccc(C(F)(C(F)(F)F)C(F)(F)F)cc4CC[C@@H]23)CC1 (single isomer, unassigned) [Example 11]
10 | 7.25 | N=S1(=O)CCC(C(=O)N2CC[C@@]3(S(=O)(=O)c4ccc(F)cc4)c4ccc(C(F)(C(F)(F)F)C(F)(F)F)cc4CC[C@@H]23)CC1 (single isomer, unassigned) [Example 12]
11 | 7.59 | CN=S1(=O)CCC(C(=O)N2CC[C@@]3(S(=O)(=O)c4ccc(F)cc4)c4ccc(C(F)(C(F)(F)F)C(F)(F)F)cc4CC[C@@H]23)CC1 (single isomer, unassigned) [Example 13]
12 | 7.40 | CN=S1(=O)CCC(C(=O)N2CC[C@@]3(S(=O)(=O)c4ccc(F)cc4)c4ccc(C(F)(C(F)(F)F)C(F)(F)F)cc4CC[C@@H]23)CC1 (single isomer, unassigned) [Example 14]
13 | 7.31 | CC(=O)N=S1(=O)CCC(C(=O)N2CC[C@@]3(S(=O)(=O)c4ccc(F)cc4)c4ccc(C(F)(C(F)(F)F)C(F)(F)F)cc4CC[C@@H]23)CC1 (single isomer, unassigned) [Example 15]
14 | 7.11 | CC(=O)N=S1(=O)CCC(C(=O)N2CC[C@@]3(S(=O)(=O)c4ccc(F)cc4)c4ccc(C(F)(C(F)(F)F)C(F)(F)F)cc4CC[C@@H]23)CC1 (single isomer, unassigned) [Example 16]
15 | 7.28 | N=S1(=O)CCC(F)(C(=O)N2CC[C@@]3(S(=O)(=O)c4ccc(F)cc4)c4ccc(C(F)(C(F)(F)F)C(F)(F)F)cc4CC[C@@H]23)CC1 (single isomer, unassigned) [Example 18]
16 | 7.22 | N=S1(=O)CCC(F)(C(=O)N2CC[C@@]3(S(=O)(=O)c4ccc(F)cc4)c4ccc(C(F)(C(F)(F)F)C(F)(F)F)cc4CC[C@@H]23)CC1 (single isomer, unassigned) [Example 19]
17 | 7.47 | CC1(C(=O)N2CC[C@@]3(S(=O)(=O)c4ccc(F)cc4)c4ccc(C(F)(C(F)(F)F)C(F)(F)F)cc4CC[C@@H]23)CCS(=N)(=O)CC1 (stereo partly shown) [Example 8]
18 | 7.32 | N#CC1(C(=O)N2CC[C@@]3(S(=O)(=O)c4ccc(F)cc4)c4ccc(C(F)(C(F)(F)F)C(F)(F)F)cc4CC[C@@H]23)CCS(=N)(=O)CC1 (stereo partly shown) [Example 10]
19 | 7.68 | CN1CC2N(C(=O)C3CCS(=N)(=O)CC3)CCC2(S(=O)(=O)c2ccc(F)cc2)c2ccc(C(F)(C(F)(F)F)C(F)(F)F)cc21 (stereo not shown) [Example 17]

From patent publication US10968177B2, “Tricyclic sulfones as RORγ modulators” (BRISTOL-MYERS SQUIBB COMPANY, priority 2016, dated 2021)
